The source of these data is patent US20240002520A1, “TREATMENT OF CASTLEMAN DISEASE” (THE TRUSTEES OF THE UNIVERSITY OF PENNSYLVANIA, priority 2020, published 2024).

One assay relates to iMCD. Conditions: literature case reports; cited from earlier work.
The test system of assay [1] is CXCL13. Description: Serum proteomics (SomaLogic SOMAscan) during siltuximab therapy, phase II study. The format is in vivo, human. On the procedure: Methods. Clinical data and serum samples were collected as part of NCT01024036. We measured serum protein analytes in the 52 subjects who were treated with anti-IL6 therapy, as well as the 26 patients in the control arm, at day 1, day 8, and day 64 of therapy (infusions administered every 21 days). Serum samples from 44 healthy donors were also analyzed. Of the 1,305 analytes measured using SomaLogic SOMAscan, 1,178 passed QC and were included in analyses. Each analyte was log 2 transformed and capped at the 2.5th and 97.5th percentiles. Response to anti-IL6 therapy was determined by independent review in NCT01024036. Data processing was performed using the Medidata Rave Omics machine learning platform and R v3.4.4.
Linear mixed effects models were used to detect whether kinetic changes in protein expression were associated with anti-IL6 response. Upon running the full model with the selected covariates, the p-values of the interaction between time point and response were used to test for differences between responders and nonresponders.
A separate model was fitted using each protein, and False Discovery Rates (FDR) were estimated by the Benjamini-Hochberg method with alpha <0.05.

In assay [2] the test system is CXCL13. The experiment in a line: Serum CXCL13 levels (absolute quantification, RBM) in validation cohort, siltuximab phase I study. The format is in vivo, human. The text has this:
Samples collected in real-world practice were included to better represent the full spectrum of iMCD. We obtained samples from 60 patients with diseases that overlap in clinical and pathological presentation with iMCD, including HHV8-associated MCD (N=20), HL (N=20), and RA (N=20), which are caused by viral, neoplastic, and autoimmune mechanisms, respectively, and 44 healthy individuals. […] All serum samples from the phase I and the phase II studies were collected and processed following respective standardized protocols.
For the 23 samples in the validation cohort, Rules Based Medicine (RBM) DiscoveryMap v1.0 was used to measure 190 serum analytes by a microsphere-based, multiplexed immunoassay platform.^18 RBM values were converted to standardized units and log 2 transformed. Of 190 proteins measured by RBM, 154 can be mapped to targets in the Somalogic platform, and 140 remained for analysis after filtering out low-quality targets on both platforms.
A […] was generated to identify 17% as the optimal reduction in CXCL13 levels to maximize sensitivity and specificity of this indicator (FIGS. 7 & 14). Specifically, if a patient has a 17% or greater reduction in CXCL13 levels, then the patient is highly likely to respond (FIGS. 15-16, Table 4). The proteins from patients in the discovery cohort described supra were quantified using a relative quantification while the protein quantification in the validation described in Table 4 utilized absolute quantification.

Assay [3] relates to iMCD patients. As to conditions: cited from earlier work.
The test system of assay [4] is iMCD patients. The experiment in a line: Siltuximab phase II study (NCT01024036): durable symptomatic and tumor response criteria. The format is in vivo, human.
Text: Clinical and laboratory data were collected at the time of sample draw for iMCD patients. To assess disease activity, we adapted a previously published disease activity score using C-reactive protein, hemoglobin, and albumin.
Another assay has as its system CD19+CD27-IgD+B cells. Description: In vitro treatment of flow-sorted iMCD patient B cells, RNA sequencing and geneset enrichment analysis of Hallmark pathways. It is filed as cell-based, human. As to conditions: serum plus rhCXCL13 compared to serum only. On the procedure: An in vitro experiment was performed that included flow sorting CD19+CD27-IgD+B cells from peripheral blood mononuclear cells (PBMCs) derived from an iMCD patient and treating the CD19+CD27-IgD+B cells with either (A) serum only, (B) serum plus recombinant human CXCL13 (rhCXCL13) to assess the effects of CXCL13 on iMCD patient B cells, or (C) serum, rhCXCL13, and anti-CXCL13 (anti-CXCL13) antibody to assess the effects of this blocking antibody. Each of these samples had geneset enrichment analysis performed of the Hallmark pathways on RNA sequencing data.

The mark [5] stands for this setting: Non-Responders (N = 13), Day 43.

For `C=CC[C@@H]1/C=C(\C)C[C@H](C)C[C@H](OC)[C@H]2O[C@@](O)(C(=O)C(=O)N3CCCC[C@H]3C(=O)O[C@H](/C(C)=C/[C@@H]3CC[C@@H](O)[C@H](OC)C3)[C@H](C)[C@@H](O)CC1=O)[C@H](C)C[C@@H]2OC` [tacrolimus], the “reported activity in iMCD” value in the assay with iMCD is “potential activity”.

Consider siltuximab, for which the “CXCL13 levels in non-responders” value in the assay with CXCL13 [1] (by day 64) was “remained elevated”. Besides, the “CXCL13 levels in siltuximab responders” value with CXCL13 [1] (by day 64) is “decreased to levels approaching the healthy donor range”. In addition, the “9 serum proteins (IgA, BCMA, NPS-PLA2, ART, IL-18 BPa, CD5L, b2-Microglobulin, CXCL13, NRP1) in responders compared to non-responders” value with CXCL13 [1] (day 8, seven days after first siltuximab administration) is on record as “significantly decreased”. Further, the “CXCL13, Median (IQR)” value is on record as 249 (73.1, 466) pg/ml in the assay on CXCL13 [2] (Non-Responders (N = 13), Day 22/29, baseline 155 (79, 293)); 218 (62, 371) pg/ml in the assay with CXCL13 [2] (setting [5]); 41.1 (23.5, 62) pg/ml in the assay with CXCL13 [2] (Responders (N = 10), Day 22/29, baseline 116 (57, 258)); 94.4 (29.6, 147) pg/ml in the assay with CXCL13 [2] (Responders (N = 10), Day 43). Further, the “CXCL13, Mean (SD)” value in the assay on CXCL13 [2] (Non-Responders (N = 13), Day 22/29, baseline 234 (240)) is listed as 337 (381) pg/ml; in the assay on CXCL13 [2] (setting [5]), 229.1 (190.3) pg/ml; in the assay with CXCL13 [2] (Responders (N = 10), Day 22/29, baseline 241 (361)), 71.5 (94.5) pg/ml; in the assay with CXCL13 [2] (Responders (N = 10), Day 43), 94.8 (70.6) pg/ml. Moreover, the “patients who met response criteria” value with iMCD patients [3] (Phase II study NCT01024036, assessed after a minimum of 48 weeks) is “one-third”. Moreover, in the assay on iMCD patients [3] (siltuximab phase II registrational study), the “iMCD patients who did not meet primary response criteria” value is recorded as 66%. Also, the “patients with lymph node response by Cheson criteria who also achieved durable symptomatic response” value in the assay on iMCD patients [4] was 18 of 20.

B1: rhCXCL13: recombinant human CXCL13 (protein, UniProt O43927 23-109, looked up)
C-X-C motif chemokine 13: VLEVYYTSLRCRCVQESSVFIPRRFIDRIQILPRGNGCPRKEIIVWKKNKSIVCVDPQAEWIQRMMEVLRKRSSSTLPVPVFKRKIP
Take B1: the “pathways previously found up-regulated in iMCD (IL6-JAK-STAT3, mTORC1, Interferon alpha response, interferon gamma response, complement, TNFα signaling via NFKb)” value in the assay with CD19+CD27-IgD+B cells is “up-regulated”.
